The results in this text go back to ChEMBL document CHEMBL1154879, “Discovery of (thienopyrimidin-2-yl)aminopyrimidines as potent, selective, and orally available pan-PI3-kinase and dual pan-PI3-kinase/mTOR inhibitors for the treatment of cancer” (J Med Chem, 2010).

Activity calls are given as the source filed them. No cut-off for these calls is given here.

In data set [1] the target is Phosphatidylinositol 4-kinase beta (Homo sapiens) (UniProt Q9UBF8). Kind of data set: Inhibition of PI4Kbeta at 1 uM.
Phosphatidylinositol 4-kinase beta (Homo sapiens), sequence (Q9UBF8 2-816 limits assumed): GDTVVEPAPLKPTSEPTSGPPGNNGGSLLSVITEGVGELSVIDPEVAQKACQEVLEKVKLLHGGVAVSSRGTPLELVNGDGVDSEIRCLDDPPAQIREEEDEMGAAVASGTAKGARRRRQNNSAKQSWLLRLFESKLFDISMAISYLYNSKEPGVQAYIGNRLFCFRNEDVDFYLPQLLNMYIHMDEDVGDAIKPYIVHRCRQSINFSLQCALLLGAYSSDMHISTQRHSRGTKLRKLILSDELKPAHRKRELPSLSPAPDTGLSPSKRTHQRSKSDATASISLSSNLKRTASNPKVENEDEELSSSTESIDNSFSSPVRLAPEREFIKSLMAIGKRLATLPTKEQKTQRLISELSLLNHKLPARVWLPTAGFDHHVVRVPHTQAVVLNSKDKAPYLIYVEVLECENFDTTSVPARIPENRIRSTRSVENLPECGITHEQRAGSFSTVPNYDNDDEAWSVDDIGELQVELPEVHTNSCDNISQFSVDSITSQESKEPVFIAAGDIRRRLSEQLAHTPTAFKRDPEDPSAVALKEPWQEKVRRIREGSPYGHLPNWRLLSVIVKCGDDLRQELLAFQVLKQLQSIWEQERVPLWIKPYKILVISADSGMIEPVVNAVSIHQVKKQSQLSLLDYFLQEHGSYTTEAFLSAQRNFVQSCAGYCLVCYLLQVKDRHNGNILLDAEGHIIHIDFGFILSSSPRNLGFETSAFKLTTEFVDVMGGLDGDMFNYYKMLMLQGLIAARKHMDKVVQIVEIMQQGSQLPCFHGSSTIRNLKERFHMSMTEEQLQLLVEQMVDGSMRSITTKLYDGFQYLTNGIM
The test system of data set [2] is Mus musculus. In words: Inhibition of PI3K/Akt/mTOR pathway signaling in PI3Kalpha mutant expressing human MCF7.1 cells xenografted nu/nu mouse assessed as inhibition of Akt Ser473 phosphorylation at 6.25 mg/kg, po qd for 21 days measured 1 hr after last administered dose on day 21 by electrochemiluminescence assay. Format: functional. Background: In xenograft studies the graft and the host belong to different species.

Data set [3] deals with Mus musculus. In words: Inhibition of PI3K/Akt/mTOR pathway signaling in PI3Kalpha mutant expressing human MCF7.1 cells xenografted nu/nu mouse assessed as inhibition of Akt Ser473 phosphorylation at 12.5 mg/kg, po qd for 21 days measured 1 hr after last administered dose on day 21 by electrochemiluminescence assay. The data set is classed as functional.
Data set [4] concerns Mus musculus. Kind of data set: Inhibition of PI3K/Akt/mTOR pathway signaling in PI3Kalpha mutant expressing human MCF7.1 cells xenografted nu/nu mouse assessed as inhibition of Akt Ser473 phosphorylation at 25 mg/kg, po qd for 21 days measured 1 hr after last administered dose on day 21 by electrochemiluminescence assay. The data set is classed as functional.
In data set [5] the test system is Mus musculus. In words: Inhibition of PI3K/Akt/mTOR pathway signaling in PI3Kalpha mutant expressing human MCF7.1 cells xenografted nu/nu mouse assessed as inhibition of Pras40 Thr246 phosphorylation at 12.5 mg/kg, po qd for 21 days measured 1 hr after last administered dose on day 21 by ELISA. The data set is classed as functional.
The test system of data set [6] is Mus musculus. Kind of data set: Inhibition of PI3K/Akt/mTOR pathway signaling in PI3Kalpha mutant expressing human MCF7.1 cells xenografted nu/nu mouse assessed as inhibition of Pras40 Thr246 phosphorylation at 12.5 mg/kg, po qd for 21 days measured 4 hrs after last administered dose on day 21 by ELISA. Format: functional.
The test system of data set [7] is Mus musculus. In words: Inhibition of PI3K/Akt/mTOR pathway signaling in PI3Kalpha mutant expressing human MCF7.1 cells xenografted nu/nu mouse assessed as inhibition of Pras40 Thr246 phosphorylation at 25 mg/kg, po qd for 21 days measured 4 hrs after last administered dose on day 21 by ELISA. The data set is classed as functional.
Data set [8] has as its system Mus musculus. In words: Toxicity in human MCF7.1 cells expressing PI3Kalpha mutant xenografted nu/nu mouse assessed as body weight loss at 25 mg/kg, po qd for 21 days. Format: organism-based. Also noted: dose 25 mg/kg, route oral. As to conditions: in vivo, 504 h.
In data set [9] the test system is Mus musculus. Kind of data set: Inhibition of PI3K/Akt/mTOR pathway signaling in PI3Kalpha mutant expressing human MCF7.1 cells xenografted nu/nu mouse assessed as inhibition of S6RP Ser235/236 phosphorylation at 6.25 mg/kg, po qd for 21 days measured 4 hrs after last administered dose on day 21 by electrochemiluminescence assay. Format: functional.
Data set [10] concerns Mus musculus. In words: Inhibition of PI3K/Akt/mTOR pathway signaling in PI3Kalpha mutant expressing human MCF7.1 cells xenografted nu/nu mouse assessed as inhibition of S6RP Ser235/236 phosphorylation at 12.5 mg/kg, po qd for 21 days measured 4 hrs after last administered dose on day 21 by electrochemiluminescence assay. The data set is classed as functional.
Data set [11] has as its system Mus musculus. In words: Inhibition of PI3K/Akt/mTOR pathway signaling in PI3Kalpha mutant expressing human MCF7.1 cells xenografted nu/nu mouse assessed as inhibition of S6RP Ser235/236 phosphorylation at 25 mg/kg, po qd for 21 days measured 4 hrs after last administered dose on day 21 by electrochemiluminescence assay. Format: functional.
The target in data set [12] is Tyrosine-protein kinase SYK (Homo sapiens, UniProt P43405). Kind of data set: Inhibition of SYK.
Data set [13] deals with PC-3. Kind of data set: Antiproliferative activity against human PC3 cells deficient in PTEN in after 3 to 4 days. The data set is classed as functional, cell-based.
A short description of data set [14]: Clearance in nu/nu mouse at 1 mg/kg, iv. Format: ADME, organism-based. Details: dose 1 mg/kg, route intravenous. As to conditions: in vivo.
Data set [15] can be described thus: Volume of distribution at steady state in nu/nu mouse at 1 mg/kg, iv. Format: ADME, organism-based. As to conditions: in vivo, read-out: Vdss. Details: dose 1 mg/kg, route intravenous.
Data set [16] can be described thus: Oral bioavailability in nu/nu mouse at 5 mg/kg, po. Format: ADME, organism-based. As to conditions: in vivo.
Data set [17] deals with Phosphatidylinositol 4,5-bisphosphate 3-kinase catalytic subunit alpha isoform (Homo sapiens, UniProt P42336).
Phosphatidylinositol 4,5-bisphosphate 3-kinase catalytic subunit alpha isoform, sequence (P42336 whole entry, canonical isoform): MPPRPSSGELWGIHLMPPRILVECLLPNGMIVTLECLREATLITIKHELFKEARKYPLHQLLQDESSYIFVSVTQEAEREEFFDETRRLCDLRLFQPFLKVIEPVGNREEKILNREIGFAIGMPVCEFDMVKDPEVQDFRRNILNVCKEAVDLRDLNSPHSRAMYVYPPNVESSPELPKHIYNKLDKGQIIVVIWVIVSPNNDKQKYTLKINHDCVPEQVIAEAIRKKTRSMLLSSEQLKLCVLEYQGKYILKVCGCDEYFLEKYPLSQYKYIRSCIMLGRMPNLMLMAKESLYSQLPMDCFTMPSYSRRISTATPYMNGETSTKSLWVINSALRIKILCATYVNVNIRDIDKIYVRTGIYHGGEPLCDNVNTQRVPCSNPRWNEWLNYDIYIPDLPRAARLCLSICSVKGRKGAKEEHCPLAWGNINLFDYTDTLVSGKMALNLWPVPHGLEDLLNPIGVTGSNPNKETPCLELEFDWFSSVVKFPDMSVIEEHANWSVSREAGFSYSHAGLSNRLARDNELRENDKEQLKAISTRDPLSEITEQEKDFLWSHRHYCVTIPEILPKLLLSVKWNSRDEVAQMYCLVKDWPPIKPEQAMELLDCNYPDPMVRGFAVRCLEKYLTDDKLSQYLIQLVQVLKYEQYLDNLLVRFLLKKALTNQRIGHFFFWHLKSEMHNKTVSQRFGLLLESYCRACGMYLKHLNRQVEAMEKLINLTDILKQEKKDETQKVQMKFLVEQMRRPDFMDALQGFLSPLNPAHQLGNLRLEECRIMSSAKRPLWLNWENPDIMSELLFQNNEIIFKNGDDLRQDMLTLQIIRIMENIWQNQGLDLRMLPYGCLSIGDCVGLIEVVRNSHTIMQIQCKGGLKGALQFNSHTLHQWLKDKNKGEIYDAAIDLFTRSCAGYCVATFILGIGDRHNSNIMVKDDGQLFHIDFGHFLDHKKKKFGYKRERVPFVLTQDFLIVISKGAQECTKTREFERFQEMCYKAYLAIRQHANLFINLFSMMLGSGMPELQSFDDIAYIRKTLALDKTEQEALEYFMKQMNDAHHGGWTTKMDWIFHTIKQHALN
The target of data set [18] is T1, Phosphatidylinositol 4,5-bisphosphate 3-kinase catalytic subunit delta isoform (Homo sapiens, UniProt O00329).
T1 sequence (O00329 whole entry): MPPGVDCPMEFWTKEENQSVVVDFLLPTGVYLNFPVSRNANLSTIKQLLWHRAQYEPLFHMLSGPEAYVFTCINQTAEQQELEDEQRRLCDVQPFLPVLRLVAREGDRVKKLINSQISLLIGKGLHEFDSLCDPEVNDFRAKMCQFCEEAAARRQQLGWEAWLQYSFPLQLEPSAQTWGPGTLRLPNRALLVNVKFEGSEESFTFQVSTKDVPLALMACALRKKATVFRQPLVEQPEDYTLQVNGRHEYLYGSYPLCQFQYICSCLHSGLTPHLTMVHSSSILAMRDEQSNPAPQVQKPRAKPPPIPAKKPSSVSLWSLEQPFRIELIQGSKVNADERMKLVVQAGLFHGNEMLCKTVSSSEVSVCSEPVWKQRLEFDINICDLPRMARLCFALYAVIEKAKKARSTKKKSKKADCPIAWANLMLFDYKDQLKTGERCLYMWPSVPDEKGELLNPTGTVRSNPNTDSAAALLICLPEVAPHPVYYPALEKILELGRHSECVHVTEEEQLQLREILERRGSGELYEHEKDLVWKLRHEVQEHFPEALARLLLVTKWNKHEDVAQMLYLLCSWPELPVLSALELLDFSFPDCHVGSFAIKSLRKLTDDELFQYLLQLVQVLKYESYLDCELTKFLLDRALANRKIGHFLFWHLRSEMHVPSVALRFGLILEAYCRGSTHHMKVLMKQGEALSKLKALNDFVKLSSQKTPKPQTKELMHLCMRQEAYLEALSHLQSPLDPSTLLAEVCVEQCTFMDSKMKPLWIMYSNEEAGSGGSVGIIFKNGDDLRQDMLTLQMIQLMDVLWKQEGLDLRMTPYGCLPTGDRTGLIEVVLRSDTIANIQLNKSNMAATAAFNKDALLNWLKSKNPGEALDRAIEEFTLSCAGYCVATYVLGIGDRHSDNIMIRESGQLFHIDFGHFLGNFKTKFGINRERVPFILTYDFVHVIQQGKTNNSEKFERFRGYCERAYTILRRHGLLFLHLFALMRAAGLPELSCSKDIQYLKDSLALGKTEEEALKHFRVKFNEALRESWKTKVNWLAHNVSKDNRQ

Data set [19] has as its target Phosphatidylinositol 4,5-bisphosphate 3-kinase catalytic subunit gamma isoform (Homo sapiens, UniProt P48736).

As a reminder, the inhibition in vivo is how much of the control response was suppressed. What is called IC50 is the concentration needed to halve the response being measured. The clearance is a measure of how efficiently the substance is removed, as volume per time. For orientation: bioavailability means dose-corrected exposure relative to a reference, in per cent. Read a high bioavailability as good availability.

Phosphatidylinositol 4,5-bisphosphate 3-kinase catalytic subunit gamma isoform, sequence (P48736 whole entry, canonical isoform): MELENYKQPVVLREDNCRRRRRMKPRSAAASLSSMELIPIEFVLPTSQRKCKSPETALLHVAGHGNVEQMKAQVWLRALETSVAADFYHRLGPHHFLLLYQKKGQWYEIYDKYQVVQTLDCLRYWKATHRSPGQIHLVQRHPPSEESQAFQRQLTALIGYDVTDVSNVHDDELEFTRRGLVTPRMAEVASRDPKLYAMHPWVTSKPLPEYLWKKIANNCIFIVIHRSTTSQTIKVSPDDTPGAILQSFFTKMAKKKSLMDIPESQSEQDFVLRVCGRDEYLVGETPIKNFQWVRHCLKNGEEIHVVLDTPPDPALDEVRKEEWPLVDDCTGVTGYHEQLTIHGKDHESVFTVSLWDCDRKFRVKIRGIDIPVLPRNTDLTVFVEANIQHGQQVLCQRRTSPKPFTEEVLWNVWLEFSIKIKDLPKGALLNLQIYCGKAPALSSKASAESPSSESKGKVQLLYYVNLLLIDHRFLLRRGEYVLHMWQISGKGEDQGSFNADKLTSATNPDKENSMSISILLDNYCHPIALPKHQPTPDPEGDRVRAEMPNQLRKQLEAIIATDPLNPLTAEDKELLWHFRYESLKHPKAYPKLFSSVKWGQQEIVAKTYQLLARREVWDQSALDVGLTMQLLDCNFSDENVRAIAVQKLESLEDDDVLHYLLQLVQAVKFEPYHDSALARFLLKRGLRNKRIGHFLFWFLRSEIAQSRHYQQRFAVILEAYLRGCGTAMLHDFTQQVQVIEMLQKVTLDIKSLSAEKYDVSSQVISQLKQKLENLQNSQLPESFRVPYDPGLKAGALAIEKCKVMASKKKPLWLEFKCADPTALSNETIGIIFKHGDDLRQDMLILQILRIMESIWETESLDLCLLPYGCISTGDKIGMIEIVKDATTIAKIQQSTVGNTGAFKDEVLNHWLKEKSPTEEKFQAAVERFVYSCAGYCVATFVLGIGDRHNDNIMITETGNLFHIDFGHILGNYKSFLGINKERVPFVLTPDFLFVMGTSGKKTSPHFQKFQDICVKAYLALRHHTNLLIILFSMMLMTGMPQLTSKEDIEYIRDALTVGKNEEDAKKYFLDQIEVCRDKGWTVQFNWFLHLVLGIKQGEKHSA

For the compound `Cc1nc(N)ncc1-c1nc(N2CCOCC2)c2sc(C(C)(C)O)cc2n1`, the inhibition result in data set [1] is “inactive”. In addition, the figures for the inhibition in vivo at 6.25 mg/kg in [2] and in data set [9] were 81% and 51%, respectively. In addition, the inhibition in vivo at 12.5 mg/kg in data set [3] was determined as 83%; in data set [5], 100%; in data set [6], 90%; in [10] it was 50%. Moreover, the inhibition in vivo at 25 mg/kg in data set [4] turned out to be 82%; in data set [7], 95%; in data set [11], 63%. For the same compound, the Activity result in [8] is “Non-toxic”. Also, the IC50 in [12] is above 1000 nM; in [13], 490 nM; in data set [17], 3.5 nM; in [18], 5.2 nM; in data set [19], 15 nM. This compound had a clearance in data set [14] of 51 mL/min/kg. Moreover, the Vd in data set [15] came out at 3 L/kg. In [16], this compound displayed a bioavailability of 100%.
